Results on 18 compounds are retold here after publication PMC9987361, “Interaction of hemorphins with ACE homologs” (Scientific Reports, 2023).

Like-named read-outs stand apart in the source and are kept apart here. No end group written: not given here.

Data set [1] deals with T1, ACE1 (Homo sapiens, UniProt P12821).
T1 construct: purchased Dojindo Laboratories
Briefly: In vitro ACE1 inhibition assay (colorimetric ACE1 Kit-WST, absorbance 450 nm). It is filed as biochemical. On the procedure: ACE1 inhibition was measured using the absorbance-based colorimetric ACE1 Kit-WST (Dojindo Laboratories, Mashiki-machi, Japan) according to the kit instructions. […] The 18 peptides (Table 2) were initially screened in a single run at concentrations of 0, 10, 50, 100, 200, and 500 µM. […] In a 96-well microplate, 20 µL of each hemorphin concentration was pipetted into each well. In addition, 20 µL and 40 µL of deionized water were pipetted into blank 1 and blank 2 wells, respectively, and 20 µL of substrate buffer and 20 µL of enzyme working solution were pipetted into each sample well and blank 1 well.
The microplate was incubated at 37 °C for 1 h. After incubation, 200 µL of indicator working solution was pipetted to each well and then incubated for 5 min at room temperature.
The absorbance was then measured at 450 nm using a Glomax Discover Microplate Reader (Promega, Madison, WI, USA). ACE1 inhibition was measured using the equation given below: Inhibitionrate%=Blank1-Sample/Blank1-Blank2×100 where Blank1 (without a sample but with enzyme working solution) and Blank2 (without a sample and no enzyme working solution) are 20 µL and 40 µL deionized water, respectively.
The half-maximal inhibitory concentration (IC50) was determined using GraphPad Prism version 9 (GraphPad, San Diego, CA) from a nonlinear regression inhibition plot against the peptide concentration.

The test system of data set [2] is ACE2. Further details: method as in printed at the sentence. Conditions: clinically used ACE1 inhibitors; background statement, ref not given; cited from earlier work.
Data set [3] can be described thus: Dissolution of purchased peptides during sample preparation. Particulars: sample preparation for ACE1 screening. It is filed as physicochemical. The method, then: All the purchased peptides were screened in an initial run at 0, 10, 50, 100, 200, and 500 µM.
Where [4] appears, read: IC50 (μM) ± SD against ACE1, mean ± SD of three independent experiments (triplicate runs).
Setting [5] is: IC50 values of initial single-run peptide screening, single run at 0, 10, 50, 100, 200 and 500 µM, unit not given for IC50.

T1 sequence (P12821 30-1306): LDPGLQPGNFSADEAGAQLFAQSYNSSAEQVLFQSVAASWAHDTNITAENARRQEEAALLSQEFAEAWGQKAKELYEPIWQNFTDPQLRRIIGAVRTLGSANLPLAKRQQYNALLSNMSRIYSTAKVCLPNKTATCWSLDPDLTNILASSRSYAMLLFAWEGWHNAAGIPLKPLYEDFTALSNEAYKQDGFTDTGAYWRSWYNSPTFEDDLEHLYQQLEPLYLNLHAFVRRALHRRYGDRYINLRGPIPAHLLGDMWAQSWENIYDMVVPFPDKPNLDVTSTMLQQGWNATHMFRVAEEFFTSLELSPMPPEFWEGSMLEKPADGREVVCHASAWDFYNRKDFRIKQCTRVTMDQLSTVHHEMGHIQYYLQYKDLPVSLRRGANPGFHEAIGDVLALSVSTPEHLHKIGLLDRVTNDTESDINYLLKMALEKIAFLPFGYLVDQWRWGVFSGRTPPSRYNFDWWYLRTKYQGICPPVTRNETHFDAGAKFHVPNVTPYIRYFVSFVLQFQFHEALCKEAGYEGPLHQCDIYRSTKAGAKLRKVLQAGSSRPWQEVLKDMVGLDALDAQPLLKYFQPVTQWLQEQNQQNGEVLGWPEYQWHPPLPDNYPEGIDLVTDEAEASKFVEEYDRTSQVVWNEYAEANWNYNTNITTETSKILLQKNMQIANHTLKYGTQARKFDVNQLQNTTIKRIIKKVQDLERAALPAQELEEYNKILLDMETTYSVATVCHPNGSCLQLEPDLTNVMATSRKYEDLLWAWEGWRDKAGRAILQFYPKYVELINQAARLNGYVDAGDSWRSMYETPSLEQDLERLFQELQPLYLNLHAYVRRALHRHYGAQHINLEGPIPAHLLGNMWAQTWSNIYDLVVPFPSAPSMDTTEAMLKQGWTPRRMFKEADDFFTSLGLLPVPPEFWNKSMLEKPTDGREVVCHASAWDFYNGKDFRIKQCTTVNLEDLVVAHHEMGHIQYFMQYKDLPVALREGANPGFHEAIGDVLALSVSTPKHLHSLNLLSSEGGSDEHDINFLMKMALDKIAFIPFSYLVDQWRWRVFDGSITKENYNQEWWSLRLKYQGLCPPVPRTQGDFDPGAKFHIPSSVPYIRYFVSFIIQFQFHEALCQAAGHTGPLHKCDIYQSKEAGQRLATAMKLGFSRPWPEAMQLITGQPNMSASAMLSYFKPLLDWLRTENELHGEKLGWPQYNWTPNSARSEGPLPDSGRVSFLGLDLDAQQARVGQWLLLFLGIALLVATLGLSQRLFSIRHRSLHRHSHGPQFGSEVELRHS

Turning to VVYPWTQR [VVHem6], the 50% inhibitory concentration (IC50) in data set [1] (setting [4]) worked out at 12.7 µM; in data set [1] (setting [5]) it was 30.3 µM.
On to LVVYPWTQR [LVVHem6], for which the half-inhibitory concentration (IC50) in data set [1] (setting [4]) was determined as 6.45 µM; in data set [1] (setting [5]) it was 14.9 µM.
As for `CC(C)C[C@H](N)C(=O)N[C@H](C(=O)N[C@H](C(=O)N[C@@H](Cc1ccc(O)cc1)C(=O)N1CCC[C@H]1C(=O)N[C@@H](Cc1c[nH]c2ccccc12)C(=O)N[C@H](C(=O)N[C@@H](CCCNC(=N)N)C(=O)N[C@@H](CCCNC(=N)N)C(=O)N[C@@H](Cc1ccccc1)C(=O)O)[C@@H](C)O)C(C)C)C(C)C` [Camel LVVHem7], the IC50 was determined as 11.1 ± 2.18 µM in data set [1] (setting [4]) and 25.8 µM in data set [1] (setting [5]).
Turning to VVYPWTRR [Camel VVHem6], the IC50 in data set [1] (setting [5]) worked out at 44.1 µM.
Consider `C[C@H](CS)C(=O)N1CCC[C@H]1C(=O)O` [captopril], for which the “Activity against ACE2” value in data set [2] was “inactivity”.
Turning to “Tyr-Pro-Trp-Thr-Gln (YPWTQ; printed: Tyr-Pro-Trp-Thr-Gln) [Hem5]”, the “Dissolution during sample preparation” value in data set [3] was “did not dissolve”.
For the compound “YPWTQRF [Hem7, Tyr-Pro-Trp-Thr-Gln-Arg-Phe]”, the midpoint of inhibition in data set [1] (setting [5]), the IC50, lay at 95.1 µM.
With LVVYPWTR [Camel LVVHem5], the IC50 in data set [1] (setting [4]) is 6.88 ± 1.89 µM; in data set [1] (setting [5]), 21.2 µM.
The like results for “YPWTRRF [Camel Hem7, Tyr-Pro-Trp-Thr-Arg-Arg-Phe]” were, in that order, 23.6 ± 3.7 µM and 44.1 µM.
`NCCCC[C@H](N[C@@H](CCc1ccccc1)C(=O)O)C(=O)N1CCC[C@H]1C(=O)O` [lisinopril]: the “Activity against ACE2” value in data set [2] is on record as “inactivity”.
LVVYPWTRR [Camel LVVHem6]: the values for the IC50 in data set [1] (setting [4]) and in data set [1] (setting [5]) were 5.12 ± 0.7 µM and 25.9 µM, respectively.
Compound YPWTQR [Hem6, Tyr-Pro-Trp-Thr-Gln-Arg] had a 50% inhibitory concentration (IC50) in data set [1] (setting [5]) of 80.2 µM.
The compound YPWTR [Camel Hem5, Tyr-Pro-Trp-Thr-Arg] returned an IC50 in data set [1] of 78.8 µM.
As for `CC(C)C[C@H](N)C(=O)N[C@H](C(=O)N[C@H](C(=O)N[C@@H](Cc1ccc(O)cc1)C(=O)N1CCC[C@H]1C(=O)N[C@@H](Cc1c[nH]c2ccccc12)C(=O)N[C@H](C(=O)N[C@@H](CCC(N)=O)C(=O)N[C@@H](CCCNC(=N)N)C(=O)N[C@@H](Cc1ccccc1)C(=O)O)[C@@H](C)O)C(C)C)C(C)C` [LVVHem7], the IC50 in data set [1] (setting [4]) was found to be 13.1 ± 2.87 µM; in data set [1] (setting [5]) it was 29.3 µM.
On to Tyr-Pro-Trp-Thr [Hem4], for which the “IC50 values of initial single-run peptide screening” value in data set [1] (single run at 0, 10, 50, 100, 200 and 500 µM, unit not given for IC50) was “No IC50”.
On to YPWTRR [Camel Hem6], for which the “Dissolution during sample preparation” value in data set [3] is “did not dissolve”.
For the compound VVYPWTRRF [Camel VVHem7], the IC50 in data set [1] (setting [5]) came to 51.4 µM.
Turning to LVVYPWTQ [LVVHem5], the IC50 in data set [1] (setting [4]) was 20.1 ± 1.33 µM; in data set [1] (setting [5]), 36.7 µM.
